Data taken from US20160309764A1, “FOOD COMPOSITION COMPRISING FERROUS PICOLINATE” (NESTEC S.A., priority 2013, published 2016).
Entries after “also recorded” stand apart in the source; their conditions may differ.

Columns and labels:
[1] = Colour difference of iron fortified strawberry-banana yoghurt after flash pasteurization versus yoghurt with no iron salts (CIELAB); assay type: physicochemical; conditions: approx. 0.8 mg iron per 100 g, pasteurized at 105° C. for 2 minutes
Method: Commercial yoghurt, Nestlé Jogolino™ Strawberry/Banana yoghurt containing 15% banana puree and 10% strawberry puree was iron fortified by the addition of different iron salts to 5 kg yoghurt as reported in the table below. The amounts were chosen to provide approximately 0.8 mg iron per 100 g yoghurt. […] Colour measurements were performed in 1×1 cm polystyrene cuvettes using an X-Rite ColorEye 7000A colorimeter. The colorimeter was set up with a D65 light source, 10 degree observer angle and with specular component included. The colour difference between the yoghurt with no iron salts and the iron fortified yoghurt was measured for each iron salt and expressed as ΔEab* using the CIELAB colour scale.

[2] = Colour change of fortified pasteurized yoghurts on storage at 37° C. versus colour immediately after pasteurization (CIELAB); assay type: physicochemical; conditions: stored at 37° C.; for ΔEab* day 7: day 7, versus colour immediately after pasteurization; for ΔEab* day 30: day 30, versus colour immediately after pasteurization; for ΔEab* day 60: day 60, versus colour immediately after pasteurization; for ΔEab* day 120: day 120, versus colour immediately after pasteurization

Compound	ΔEab* [1]	ΔEab* day 7 [2]	ΔEab* day 30 [2]	ΔEab* day 30 ([2]; listed as ferrous sulphate)	ΔEab* day 60 [2]	ΔEab* day 120 [2]	ΔEab* ([1]; listed as ferrous picolinate)	colour change over time ([2]; up to 120 days, compared with the other iron salts)
O=S(=O)([O-])[O-].[Fe+2] [FeSO4 × H2O, Ferrous sulphate]	4.74	0.78	3.27	much greater colour changes	5.91	10.34		
O=C([O-])CN(CCN(CC(=O)[O-])CC(=O)[O-])CC(=O)[O-].[Fe+3].[Na+] [NaFeEDTA × H2O, ferric sodium EDTA]	3.11	0.96	4.16		6.93	9.37		
Ferrous picolinate	1.28	0.51	2.18		4.66	8.19	closer in colour to unfortified yoghurts; also recorded: closest colour to the yoghurt with no added iron	smaller than the yoghurts fortified by the other iron salts
